Data on 15 compounds can be found in PubChem BioAssay (NCI).

The structures appear in SMILES notation.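 Test compounds were applied to cells in 96-well plates for 48 hours at 5 doses. At the TGI there is no net growth.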 Where only a bound is given, the exact number is not on record here.

What all share (experiment): inhibition of tumour cell growth, NCI panel, 48 h
The test system of test [1] is 786-0 renal.
The test system of test [2] is A498 renal.
The test system of test [3] is BT-549 breast.
The subject of test [4] is CCRF-CEM leukemia.
In test [5] the test system is COLO 205 colon.
Test [6] relates to DU-145 prostate.
For test [7], the system named is HCT-116 colon.
Test [8] deals with HOP-62 NSCLC.
The test system of test [9] is HT29 colon.
For test [10], the system named is M14 melanoma.
Test [11] has as its system MALME-3M melanoma.
Test [12] concerns NCI-H522 lung.
In test [13] the test system is OVCAR-5 ovarian.
Test [14] concerns RPMI-8226 leukemia.
Test [15] has as its system SF-268 CNS.
The subject of test [16] is SN12C renal.
The subject of test [17] is SR leukemia.
The test system of test [18] is U251 CNS.
The test system of test [19] is UACC-257 melanoma.
The test system of test [20] is SK-MEL-2 melanoma.

Take `O=C(Nn1c(-c2ccccc2)nc2ccccc2c1=O)c1ccc(O)cc1`: the TGI in test [1], in [2], in test [3], in test [4], in [5] and in [6] was greater than 100 µM throughout. In addition, the TGI in [7], in test [8], in test [9], in [10], in test [11] and in test [12] was greater than 100 µM in each case. The TGI in [13], in [14], in test [15], in test [16], in test [17] and in test [18] was greater than 100 µM each time. This compound also yielded a TGI in test [19] greater than 100 µM.

As to `C=CCN1C[C@@H](C)N([C@@H](c2ccccc2)c2ccc(C(=O)N(CC)CC)cc2)C[C@@H]1C`, the TGI in [1], in test [2], in [3], in test [5], in [6] and in test [7] was greater than 100 µM throughout. The TGI in test [8], in test [9], in [10], in [11], in [12] and in test [13] was greater than 100 µM in each case. The TGI in [14], in [15], in [20], in test [16], in [17] and in [18] was greater than 100 µM in each case.

Take `CCN(CC)C(=O)N[C@@H](Cc1ccccc1)C(=O)NC`: the TGI in test [1], in [2], in test [3], in [4], in test [5] and in test [6] was greater than 100 µM each time. Also, the TGI in test [7], in [8], in test [9], in test [10], in test [11] and in test [12] was greater than 100 µM in each case. Besides, the TGI in test [13], in [14], in test [15], in [20], in [16] and in [17] was greater than 100 µM throughout. Besides, the TGI in test [18] was greater than 100 µM.

As for `CC(C(=O)N1C(=O)N(C(=O)[C@H](C)C(O)c2ccccc2)[C@H](c2ccccc2)[C@H]1c1ccccc1)[C@@H](O)c1ccccc1` (some centres not stated), the TGI is 82.8 µM in test [1]; greater than 100 µM in test [2]; 71 µM in test [3]; 33.2 µM in test [5]; greater than 100 µM in test [6]; greater than 100 µM in test [7]. Also, the TGI in test [8] was greater than 100 µM; in test [9], greater than 100 µM; in test [10], 61.7 µM; in test [12] it was greater than 100 µM; in [13] it was 78.3 µM; in [15], greater than 100 µM. Moreover, the TGI in test [20] is 42.6 µM; in test [16], greater than 100 µM; in test [17] it was greater than 100 µM; in test [18], greater than 100 µM; in test [19] it was 84.4 µM.

For the compound `O=C1CSC(c2ccccc2[N+](=O)[O-])N1c1ccc(-n2c(-c3ccccc3)nc3ccccc3c2=O)cc1` (configuration not stated), the TGI in test [1], in [2], in [3], in [4], in test [5] and in [6] was greater than 100 µM throughout. In addition, the TGI is greater than 100 µM in test [7]; 54.1 µM in test [8]; greater than 100 µM in test [9]; greater than 100 µM in test [11]; greater than 100 µM in [12]; greater than 100 µM in test [13]. Moreover, the TGI in test [14] was greater than 100 µM; in test [15], greater than 100 µM; in test [20], greater than 100 µM; in test [16] it was greater than 100 µM; in test [17], greater than 100 µM; in test [18], 32.7 µM. For the same compound, the TGI in [19] is greater than 100 µM.

Take `CC1=C2c3ccccc3N(S(=O)(=O)c3ccccc3)[C@H]2[C@H](C(=O)N2C3CC4CC[C@@]3(CS2(=O)=O)C4(C)C)CC1` (some centres not stated): the TGI in [1] is greater than 100 µM; in test [2], greater than 100 µM; in [3] it was 81.7 µM; in [4], greater than 100 µM; in test [5], greater than 100 µM; in [6], greater than 100 µM. Further, the TGI in [7] is greater than 100 µM; in test [8], greater than 100 µM; in test [9], greater than 100 µM; in test [10], greater than 100 µM; in test [11] it was greater than 100 µM; in test [12], 42.6 µM. Also, the TGI in [13] was greater than 100 µM; in test [14], 7.05 µM; in [15] it was greater than 100 µM; in test [16], greater than 100 µM; in test [17], greater than 100 µM; in test [18], greater than 100 µM. Also, the TGI in test [19] is greater than 100 µM.

For `N#Cc1c(-c2ccccc2)c(C#N)c(=S)n(C2OCC(O)C(O)C2O)c1N` (configuration not stated), the TGI in test [1], in test [2], in [3], in test [4], in test [6] and in test [8] was greater than 100 µM in each case. In addition, the TGI in test [9], in [10], in test [11], in test [12], in [13] and in test [14] was greater than 100 µM each time. The TGI in test [15], in test [20], in test [16], in [17] and in [19] was greater than 100 µM in each case.

Regarding `COc1cc(S(=O)(=O)Nc2ccc(-c3csc(/N=C\C=C\c4ccccc4)n3)cc2)ccc1Cl`, the TGI in test [1] was greater than 100 µM; in [2], 50.5 µM; in test [3], greater than 100 µM; in test [4], 50.4 µM; in [5] it was greater than 100 µM; in [6], greater than 100 µM. Moreover, the TGI in test [7], in test [8], in [9], in test [10], in [11] and in test [12] was greater than 100 µM in each case. For the same compound, the TGI in test [13] is greater than 100 µM; in test [14], greater than 100 µM; in [15], greater than 100 µM; in test [20], 72.3 µM; in [16], greater than 100 µM; in test [17], greater than 100 µM. The same compound registered a TGI in test [19] greater than 100 µM.

In the case of `Cc1ccc(-c2n[nH]c(=O)n2N2C(=O)C=CC2=O)cc1`, the TGI in test [1], in test [2], in test [3], in [4], in test [5] and in test [6] was greater than 100 µM in each case. The TGI in test [7], in [8], in [9], in test [10], in test [11] and in test [12] was greater than 100 µM in each case. In addition, the TGI in test [13], in test [15], in [20], in test [16], in test [17] and in test [18] was greater than 100 µM in each case. Also, in test [19], the TGI is greater than 100 µM.

In the case of `CN1CC(S(=O)(=O)c2ccccc2)CC(S(=O)(=O)c2ccccc2)C1c1ccccc1` (configuration not stated), the TGI in test [1] was 25.5 µM; in test [2] it was 31.7 µM; in test [3], 28.5 µM; in test [5], 28 µM; in test [6], 60.8 µM; in [7], 22.9 µM. In addition, the TGI in test [8] amounted to 54.6 µM; in test [9], 29.6 µM; in test [10], 42.1 µM; in [11], 27.6 µM; in [12] it was 13.1 µM; in test [13], 32.7 µM. Further, the TGI in test [15] was 37.7 µM; in test [20] it was 20 µM; in test [16], 25.7 µM; in [17], 78.3 µM; in [18] it was 25.8 µM; in test [19], 41 µM.

Take `NN/C(=N\S(=O)(=O)c1cccc2nsnc12)Nc1ccc(Cl)cc1`: the TGI in test [1], in test [2], in test [3], in test [4], in test [5] and in test [6] was greater than 100 µM throughout. The TGI in [7], in test [8], in [9], in [10], in [13] and in test [14] was greater than 100 µM each time. The TGI in test [15], in test [20], in test [16], in test [17], in test [18] and in [19] was greater than 100 µM each time.

`COC(=O)CCSC1=CC(=O)c2nc3ccccc3c3ccnc1c23`: the TGI was 40.2 µM in [1]; greater than 100 µM in test [2]; 33 µM in test [3]; greater than 26.6 µM in test [4]; greater than 47 µM in [5]; 48.1 µM in [6]. Further, the TGI in test [7] was 42.2 µM; in test [8] it was greater than 100 µM; in test [9], 34.1 µM; in test [10], 47.2 µM; in test [12], 3.74 µM; in [13] it was greater than 71.4 µM. In addition, the TGI was greater than 100 µM in test [14]; 34.3 µM in test [15]; greater than 70.1 µM in test [20]; 40.7 µM in test [16]; greater than 51.5 µM in [17]; greater than 100 µM in [18]. Further, the TGI in [19] was determined as 33 µM.

For `Nc1ccc(-c2nc3ccccc3s2)cc1I`, the TGI in test [1] was greater than 100 µM; in test [2] it was greater than 90.8 µM; in test [3], greater than 100 µM; in [4], greater than 46.4 µM; in test [5], greater than 100 µM; in test [6], greater than 100 µM. Besides, the TGI in test [8], in [9], in test [10], in [11], in [12] and in test [13] was greater than 100 µM throughout. The TGI was greater than 100 µM in [14]; greater than 100 µM in test [15]; greater than 100 µM in test [20]; greater than 100 µM in test [16]; greater than 100 µM in [17]; greater than 88.5 µM in test [18]. The TGI in test [19] was greater than 100 µM.

With `COc1cc2c(cc1O)-c1c(OC)c(O)cc3c1C(C2)N(C)CC3` (configuration not stated), the TGI in [1], in test [2], in test [3], in test [4], in test [5] and in test [6] was greater than 100 µM each time. Also, the TGI in test [7], in test [9], in [10], in test [12], in [13] and in [14] was greater than 100 µM each time. Moreover, the TGI in [15], in test [20], in test [16], in [17], in test [18] and in test [19] was greater than 100 µM each time.

In the case of `Cc1ccc(S(=O)(=O)c2ccsc2NC(=O)c2ccccc2)cc1`, the TGI in [1] was greater than 79.6 µM; in [2] it was greater than 100 µM; in [3], greater than 100 µM; in test [5], greater than 100 µM; in test [6], greater than 100 µM; in test [7] it was greater than 100 µM. Besides, the TGI in test [8] is 45 µM; in test [9], greater than 100 µM; in test [10], greater than 100 µM; in test [11], greater than 100 µM; in [12], greater than 100 µM; in [13] it was greater than 100 µM. Also, the TGI in [14] was greater than 100 µM; in test [15], greater than 82.5 µM; in [20], greater than 100 µM; in test [16], greater than 100 µM; in test [17] it was greater than 100 µM; in [18], greater than 100 µM. The TGI in test [19] was greater than 100 µM.
